Values quoted from earlier work as cited in patent US7618987B2, “Acylated piperidine derivatives as melanocortin 4-receptor agonists” (Merck & Co., Inc., priority 2004, dated 2009).

What was measured:
[1] = in vivo, po
[2] = system: males with psychogenic erectile dysfunction

With “Ac-Nle-c[Asp-His-DPhe-Arg-Trp-Lys]-NH2 [MT-II]” as the substance, how does the “absorption into the systemic circulation” value [1] read?
Its value is “not absorbed into the systemic circulation”.

What about the adverse reactions observed ([2]; in vivo) of the same substance?
The adverse reactions observed was “nausea, flushing, loss of appetite, stretching, and yawning”.

And the duration of action ([2]; in vivo)?
The duration of action was “approximately 2.5 hours”.

What about the “time to onset of erection” value ([2]; in vivo) of the same substance?
Its value is 10 to 20 min.

And the response rate ([2]; injected intramuscularly or subcutaneously)?
Its response rate is 75%.
